This is an account of results in US9206173B2, “Heterocyclic compounds for the treatment of stress-related conditions” (OTSUKA PHARMACEUTICAL CO., LTD., priority 2009, dated 2015).

This test deals with human GPR10 (Homo sapiens (Human), UniProt P49683). The test can be described thus: Inhibitory activity on binding of [3H]-PrRP to GPR10 (HEK 293 cell membrane fraction). Particulars: [3H]-PrRP 1 nM, human GPR10-expressing HEK 293 cell membrane fraction; Ki from IC50 by Cheng-Prussoff formula. The protocol: Inhibitory Activity on Binding of [^3H]-PrRP to GPR10
Human GPR10 receptor expressing human embryonic kidney cells, HEK 293 cells, were cultured in Dulbecco's Modified Eagle's medium supplemented with 10% fetal bovine serum and 1% penicilline-streptmycin at 37° C., in 5% carbon dioxide gas conditions. The medium was removed and the cells were recovered in a phosphate buffer to prepare a cell suspension. The cell suspension was homogenated on ice by an ultrasonic cell homogenizer (Microson™ type XL200) and centrifuged at 40,000 g for 10 minutes at 4° C. After the supernatant was discarded, Buffer A (20 mM HEPES, 10 mM EDTA, 1 μl/ml protease inhibiting cocktail, pH 7.4) was added to the pellet. The pellet was suspended by the ultrasonic cell homogenizer, then the suspension was centrifuged at 40,000 g, for 10 minutes at 4° C. After this operation was repeated once again, the supernatant was discarded, Buffer B (20 mM HEPES, 0.1 mM EDTA, pH 7.4) was added to the pellet, and the pellet was suspended by the ultrasonic homogenizer. This was stored at a freezer of −80° C. as a cell membrane fraction until use in a binding test.
To each well of a 96-well plate, 150 μl of assay buffer (20 mM HEPES, 10 mM EDTA, 1 μl/ml protease inhibiting agent cocktail, pH 7.4), 20 μl of cell membrane fraction, 10 μl of test compound and [^3H]-PrRP (final concentration 1 nM) were added and incubated at room temperature for 90 minutes. After completion of the reaction, using a cell harvester, the cell-membrane fraction sample product was filtered under aspiration by a glass fiber filter plate (Unifilter; GF/B) previously treated with 0.5% polyethylene imine. The filter was washed with a 50 mM Tris hydrochloric acid buffer (pH 7.4) three times. After the filter was dried in a dryer (50° C.) for about 3 hours, 40 μl of liquid scintillation cocktail (MicroScint-O) was added to each well and radio activity was measured by a scintillation counter (Packard Topcount). The radio activity in the presence of an excessive amount of non-labeled PrRP (final concentration: 100 nM) was regarded as non-specific binding.
The binding inhibition rate was calculated based on calculating formula: 100−(radio activity when a compound is added−radio activity of non-specific binding)÷(radio activity when a solvent is added−radio activity of non-specific binding)×100.
An IC50 value was calculated based on the concentration dependent reaction using a non-linear analysis program and a Ki value was calculated using Cheng-Prussoff formula.

Counter-ions that a name gives are not always drawn.

Chain of human GPR10 (P49683 whole entry): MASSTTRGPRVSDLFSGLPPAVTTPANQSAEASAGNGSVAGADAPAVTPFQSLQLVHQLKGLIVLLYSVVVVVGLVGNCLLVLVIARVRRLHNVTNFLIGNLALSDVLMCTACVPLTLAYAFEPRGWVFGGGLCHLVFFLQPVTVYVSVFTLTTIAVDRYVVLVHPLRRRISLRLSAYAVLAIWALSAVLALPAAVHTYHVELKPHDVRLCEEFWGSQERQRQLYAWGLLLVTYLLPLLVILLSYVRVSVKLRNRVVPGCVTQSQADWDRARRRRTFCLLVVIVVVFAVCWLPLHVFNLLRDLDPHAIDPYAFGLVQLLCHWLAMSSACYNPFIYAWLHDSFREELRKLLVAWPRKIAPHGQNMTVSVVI

What is called Ki is a dissociation constant, usually derived from enzyme kinetics or from competition with a known ligand. `COn1c(N[C@@H](C)c2ccc(C(F)(F)F)cc2)nc2c(c1=O)CN(C(=O)c1cc3cccnc3s1)CC2` [Example 2415, 3-methoxy-6-(thieno[2,3-b]pyridine-2-carbonyl)-2-[(S)-1-(4-trifluoromethylphenyl)ethylamino]-5,6,7,8-tetrahydro-3H-pyrido[4,3-d]pyrimidin-4-one]: affinity was put at a Ki of 9 nM.

As to `CC(C)COn1c(N[C@@H](C)c2ccc(C(F)(F)F)cc2)nc2c(c1=O)CN(C(=O)c1ccc(C#N)cc1F)CC2` [Example 2416, 3-fluoro-4-{3-isobutoxy-4-oxo-2-[(S)-1-(4-trifluoromethylphenyl)ethylamino]-3,5,7,8-tetrahydro-4H-pyrido[4,3-d]pyrimidine-6-carbonyl}benzonitrile], the Ki is 33 nM.

In the case of `C#CCCn1c(N[C@@H](C)c2ccc(C(F)(F)F)cc2)nc2c(c1=O)CN(C(=O)c1ccc(-n3ccnc3)cc1)CC2` [Example 2434, 3-(3-butynyl)-6-(4-imidazol-1-ylbenzoyl)-2-[(S)-1-(4-trifluoromethylphenyl)ethylamino]-5,6,7,8-tetrahydro-3H-pyrido[4,3-d]pyrimidin-4-one], the Ki was found to be 9 nM.

`C#CCCn1c(N[C@@H](C)c2ccc(C(F)(F)F)cc2)nc2c(c1=O)CN(C(=O)c1ccc(-c3cnco3)cc1)CC2` [Example 2438, 3-(3-butynyl)-6-(4-oxazol-5-ylbenzoyl)-2-[(S)-1-(4-trifluoromethylphenyl)ethylamino]-5,6,7,8-tetrahydro-3H-pyrido[4,3-d]pyrimidin-4-one] had a Ki of 26 nM.

Take `C[C@H](Nc1nc2c(c(=O)n1N(C)C)CN(C(=O)COc1ccc(Cl)cc1)CC2)c1ccc(C(F)(F)F)cc1` [Example 2442, 6-[2-(4-chlorophenoxy)acetyl]-3-dimethylamino-2-[(S)-1-(4-trifluoromethylphenyl)ethylamino]-5,6,7,8-tetrahydro-3H-pyrido[4,3-d]pyrimidin-4-one hydrochloride]: the affinity, expressed as Ki, was 140 nM.

In the case of `C#CCCn1c(N[C@@H](C)c2ccc(C(F)(F)F)cc2)nc2c(c1=O)CN(C(=O)c1ccc(C)cc1)CC2` [Example 2443, 3-(3-butynyl)-6-(4-methylbenzoyl)-2-[(S)-1-(4-trifluoromethylphenyl)ethylamino]-5,6,7,8-tetrahydro-3H-pyrido[4,3-d]pyrimidin-4-one], the Ki was determined as 41 nM.

As for `CC#CCn1c(N[C@@H](C)c2ccc(C(F)(F)F)cc2)nc2c(c1=O)CN(C(=O)c1ccc3c(c1)OCO3)CC2` [Example 2444, 6-(benzo[1,3]dioxole-5-carbonyl)-3-(2-butynyl)-2-[(S)-1-(4-trifluoromethylphenyl)ethylamino]-5,6,7,8-tetrahydro-3H-pyrido[4,3-d]pyrimidin-4-one], the Ki turned out to be 42 nM.

For `CC#CCn1c(N[C@@H](C)c2ccc(C(F)(F)F)cc2)nc2c(c1=O)CN(C(=O)c1ccc(C)c(C)c1)CC2` [Example 2447, 3-(2-butynyl)-6-(3,4-dimethylbenzoyl)-2-[(S)-1-(4-trifluoromethylphenyl)ethylamino]-5,6,7,8-tetrahydro-3H-pyrido[4,3-d]pyrimidin-4-one], the Ki was 41 nM.

For `CC#CCn1c(N[C@@H](C)c2ccc(C(F)(F)F)cc2)nc2c(c1=O)CN(C(=O)c1ccc(OC)cc1)CC2` [Example 2448, 3-(2-butynyl)-6-(4-methoxybenzoyl)-2-[(S)-1-(4-trifluoromethylphenyl)ethylamino]-5,6,7,8-tetrahydro-3H-pyrido[4,3-d]pyrimidin-4-one], the affinity, expressed as Ki, was 23 nM.

As to `COn1c(NC(CCC(F)(F)F)c2ccc(Cl)cc2)nc2c(c1=O)CN(C(=O)c1ccc(Cl)cc1)CC2` (stereo not shown) [Example 2450, 6-(4-chlorobenzoyl)-2-[1-(4-chlorophenyl)-4,4,4-trifluorobutylamino]-3-methoxy-5,6,7,8-tetrahydro-3H-pyrido[4,3-d]pyrimidin-4-one], the Ki worked out at 121 nM.
